Test results from US7868205B2, “Inhibitors of histone deacetylase” (MethylGene Inc., priority 2003, dated 2011).

Columns and labels:
human HDAC-1 = human HDAC-1 (Homo sapiens, UniProt Q13547); experiment: Inhibition of histone deacetylase enzymatic (HDAC-1) activity; type: biochemical; details: Table 6C
Method: The following protocol was used to assay the compounds of the invention.
The mixture was pre-incubated for 5 minutes at room temperature. The reaction was started by bringing the temperature to 37° C. and adding 16 μl substrate.

[1] = test system: HCT116 human colon cancer cells; experiment: MTT assay, antiproliferative activity; type: cell-based; details: HCT-116, 72 hours
Method: (§1) Table 6C provides data on inhibition of HDAC1 enzyme, on antiproliferative activities (HCT116 human colon cancer cells) of the compounds using 3-[4,5-dimethylthiazol-2-yl-2,5-diphenyltetrazolium]bromide (MTT) assay, as well as induction of p21^WAF1/Cip1 tumor suppressor gene.
Compounds at various concentrations were added to human colon cancer HCT116 cells plated in 96-well plates. Cells were incubated for 72 hours at 37° C. in 5% CO2 incubator. MTT (3-[4,5-dimethylthiazol-2-yl]-2,5 diphenyl tetrazolium bromide, Sigma) was added at a final concentration of 0.5 mg/ml and incubated with the cells for 4 hours before an equal volume of solubilization buffer (50% N,N-dimethylformamide, 20% SDS, pH 4.7) was added onto cultured cells. After overnight incubation, solubilized dye was quantified by colorimetric reading at […] using a reference at 630 nM. OD values were converted to cell numbers according to a standard growth curve of the relevant cell line. The concentration which reduces cell numbers to 50% of those of DMSO-treated cells is determined as MTT IC50,

[2] = test system: p21^WAF1/Cip1 tumor suppressor gene; experiment: p21WAF1/Cip1 assay (p21 promoter-driven luciferase reporter); type: cell-based, human; details: HCT116 cells with p21 promoter-driven luciferase, 16 hours; compared with MS-275
Method: as §1
HCT116 cells were stably transfected with reporter plasmids encoding the p21 promoter-driven luciferase. Cells were treated with indicated concentration of HDAC inhibitors for 16 hours before cells were harvested and luciferase activity analyzed. The effective concentration (EC) of MS-275 was designated as 1 uM. The ability of HDAC inhibitor was compared with that of MS-275 (T. Suzuki, et. al J. Med. Chem., 1999, 3001-3003).

[3] = test system: HCT116 human colorectal carcinoma cells; experiment: Antineoplastic effects on human tumor xenografts in vivo, HCT116; details: hct116 xenograft in mice, daily injection
Method: (§2) Eight to ten week old female BCDI mice (Taconic Labs, Great Barrington, N.Y.) were injected subcutaneously in the flank area with 2×10^6 preconditioned HCTI 16 human colorectal carcinoma cells, A549 human lung cancer, SW48 human colorectal cancer, A431 vulval caracinoma and colo205 human colorectal cancer. Preconditioning of these cells was done by a minimum of three consecutive tumor transplantations in the same strain of nude mice. Subsequently, tumor fragments of approximately 30 mgs were excised and implanted subcutaneously in mice, in the left flank area, under Forene anesthesia (Abbott Labs, Geneva, Switzerland). When the tumors reached a mean volume of 100 mm^3, the mice were treated intravenously, subcutaneously, or intraperitoneally by daily injection, with a solution of the histone deacetylase inhibitor in an appropriate vehicle, such as PBS, DMSO/water, or Tween 80/water, at a starting dose of 10 mg/kg. The optimal dose of the HDAC inhibitor was established by dose response experiments according to standard protocols. Tumor volume was calculated every second day post infusion according to standard methods (e.g., Meyer et al., Int. J. Cancer 43: 851-856 (1989)).

A549 human lung cancer = experiment: Antineoplastic effects on human tumor xenografts in vivo, A549; details: A549 xenograft in mice, daily injection
Method: as §2

A431 vulval carcinoma = experiment: Antineoplastic effects on human tumor xenografts in vivo, A431; details: A431 xenograft in mice, daily injection
Method: as §2

Chain of human HDAC-1 (Q13547 whole entry): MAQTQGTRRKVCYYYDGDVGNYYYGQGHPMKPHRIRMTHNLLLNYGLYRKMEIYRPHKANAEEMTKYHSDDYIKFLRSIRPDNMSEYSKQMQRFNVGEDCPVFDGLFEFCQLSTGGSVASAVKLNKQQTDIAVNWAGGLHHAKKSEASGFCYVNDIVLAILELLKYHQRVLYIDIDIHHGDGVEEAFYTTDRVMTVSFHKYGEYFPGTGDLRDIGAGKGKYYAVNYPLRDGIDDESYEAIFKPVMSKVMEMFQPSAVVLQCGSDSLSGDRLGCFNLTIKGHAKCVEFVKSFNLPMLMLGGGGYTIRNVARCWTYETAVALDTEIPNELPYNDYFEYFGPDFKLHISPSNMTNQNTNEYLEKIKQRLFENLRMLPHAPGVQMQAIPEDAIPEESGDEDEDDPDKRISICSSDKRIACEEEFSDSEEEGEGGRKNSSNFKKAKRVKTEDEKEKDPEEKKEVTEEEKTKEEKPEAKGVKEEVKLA

| Structure (SMILES) | IC50 (human HDAC-1) | IC50 [1] | P21 (HCT116) μM, effective concentration (EC) for induction of p21 [2] | antineoplastic effects [3] | antineoplastic effects (A549 human lung cancer) | antineoplastic effects (A431 vulval carcinoma) |
| --- | --- | --- | --- | --- | --- | --- |
| Nc1ccc(-c2cccs2)cc1NC(=O)c1ccc2ncccc2c1 [258cc, N-(2-amino-5-(thiophen-2-yl)phenyl)quinoline-6-carboxamide] | < 1000 nM | < 1000 nM | b (1≦b≦20) |  |  |  |
| CN(C)CCOC(=O)Nc1ccc(C(=O)Nc2cc(-c3cccs3)ccc2N)cc1 [164cc, 2-(dimethylamino)ethyl 4-((2-amino-5-(thiophen-2-yl)phenyl)carbamoyl)phenylcarbamate] | < 1000 nM | < 1000 nM | b (1≦b≦20) |  |  |  |
| Nc1ccc(-c2cccs2)cc1NC(=O)c1ccc(OC(=O)c2ccc(O)cc2)cc1 [258mm, 4-((2-amino-5-(thiophen-2-yl)phenyl)carbamoyl)phenyl 4-hydroxybenzoate] | < 1000 nM | < 1000 nM | b (1≦b≦20) |  |  |  |
| CC(=O)Nc1ccc(C(=O)Nc2cc(-c3cccs3)ccc2N)cc1 [258aa, 4-acetamido-N-(2-amino-5-(thiophen-2-yl)phenyl)benzamide] |  | < 1000 nM | b (1≦b≦20) | antineoplastic effects | antineoplastic effects | antineoplastic effects |
| Cc1nc2ccc(C(=O)Nc3cc(-c4cccs4)ccc3N)cc2o1 [286aa, N-(2-amino-5-(thiophen-2-yl)phenyl)-2-methylbenzo[d]oxazole-6-carboxamide] | < 1000 nM | < 1000 nM | b (1≦b≦20) |  |  |  |
| Cc1cc(C)nc(N(C)c2ccc(C(=O)Nc3cc(-c4cccs4)ccc3N)cc2)n1 [258hh, N-(2-amino-5-(thiophen-2-yl)phenyl)-4-((4,6-dimethylpyrimidin-2-yl)(methyl)amino)benzamide] | < 1000 nM | < 1000 nM | b (1≦b≦20) |  |  |  |
| Nc1ccc(-c2cccs2)cc1NC(=O)c1ccc(Cn2c(=O)[nH]c3ccccc3c2=O)cc1 [compound 349] | < 1000 nM | < 1000 nM | b (1≦b≦20) |  |  |  |

Continued, in another order:

| IC50 (human HDAC-1) | IC50 [1] | Structure (SMILES) | P21 (HCT116) μM, effective concentration (EC) for induction of p21 [2] | antineoplastic effects [3] | antineoplastic effects (A549 human lung cancer) | antineoplastic effects (A431 vulval carcinoma) |
| --- | --- | --- | --- | --- | --- | --- |
| < 1000 nM | < 1000 nM | Nc1ccc(-c2cccs2)cc1NC(=O)c1ccc(O)cc1 [258pp, N-(2-amino-5-(thiophen-2-yl)phenyl)-4-hydroxybenzamide] | b (1≦b≦20) |  |  |  |
| < 1000 nM | < 1000 nM | COc1ccc(C(=O)Nc2cc(-c3cccs3)ccc2N)cc1 [258qq, N-(2-amino-5-(thiophen-2-yl)phenyl)-4-methoxybenzamide] | b (1≦b≦20) |  |  |  |
| < 1000 nM | 1000 to 20000 nM | Nc1ccc(-c2cccs2)cc1NC(=O)c1ccsc1 [258nn, N-(2-amino-5-(thiophen-2-yl)phenyl)thiophene-3-carboxamide] | b (1≦b≦20) |  |  |  |
